Measured values reported in US5981497A, “Utilization of sophorolipids as therapeutically active substances or cosmetic products, in particular for the treatment of the skin” (Institut Francais du Petrole, priority 1995, dated 1999).
Where two headings read alike, the source gives them in different places.

Columns and labels:
[1] = system: macrophages (Interleukin-1 release); experiment: IL-1 released by macrophages (Elisa sandwich test on culture supernatant); assay type: cell-based
Source text: It is known, however, that several factors such as cytokines and growth factors play important roles in the process of wound healing. These factors include the epidermal growth factor (EGF), the fibroblastic growth factor (FGF), the platelet-derived growth factor (PDGF), and the beta transforming growth factor (beta-TGF). In addition to these factors, cytokines such as interleukin-l (IL-1), the tumor necrosis factor (TNF), and interleukin-6 (IL-6) also play important roles in the process of wound healing. These factors act by different methods, in combination with other materials, to induce proliferation of dermal and epidermal elements such as fibroblasts. […] Actually, IL-1 affects the differentiation, growth, and activity of many cellular types in the organism. Within the immune system, IL-1 acts as a second signal that is necessary to activate the IL-2 circuit by the activated T lymphocytes. It also potentiates the action of other cytokines. It contributes to the differentiation of B lymphocytes and to their production of immunoglobulins. It modifies vascular permeability by the release of mediators by the endothelial cells and induces the appearance at their surface of a factor that has a procoagulating activity. Owing to its proliferative effect on the fibroblasts, it intervenes in the repair phase.
To show the effect of activating macrophages by sophorolipids, an Elisa sandwich test was carried out on the supernatant of a culture medium that contained macrophages. […] A negative test was also used.

[2] = system: fibroblasts; experiment: Cytotoxicity on primocultures at 24 hours (neutral red), fibroblasts; assay type: cell-based
Source text: Their innocuousness and their activity make it possible to use them in other stages of healing, namely granulation and epithelialization, by modulating their concentration in the formulas of products that are used. This is possible only because of the low cytotoxicity of sophorolipids, as Tables 3A and 3B show. The toxicity of the products of the invention has been evaluated with a viability test with neutral red on two cellular types of the skin, cells L929 and other fibroblasts of the dermis and cells NCTC 2544 and keratinocytes of the epidermis. The results, which are presented in Tables 3A, 3B, correspond to the rates of cellular viability that are expressed in % relative to the negative test.

[3] = system: melanocytes; experiment: Melanine dosage in melanocytes after 7 and 14 days; assay type: cell-based; details: for activity at 100 µM / activity at 10 µM / activity at 1 µM: Melanocyte, read-out: Melanine content; for activity at 100 µM: 10^-4M; for activity at 10 µM: 10^-5M; for activity at 1 µM: 10^-6M
Description: It is noted that cutaneous ageing causes epidermal functions to slow down: melanine no longer comes to the surface of the skin in a homogeneous manner and concentrates inside certain cells, and brown spots appear mainly on the hands, the forearms, and the neckline. […] Residues are picked up in PBS/triton X-100 (1% v/v) and sounds for 30 seconds. The cellular lysate is ultracentrifuged (105,000 rpm for 40 minutes at +4° C.). The residue that is obtained is then picked up in 1 ml of PBS. The proportion of protein is determined by the calorimetric method (Biorad) and then adjusted to 1.5 mg/ml.
100-(content of melanine of the tested product×100/content of melanine TN)
TN corresponds to the negative test.
As a result, again, the galenical forms are diverse. An example of an anti-spot cream for hands that is also used in cosmetics or in therapeutics is provided below, however: […]

[4] = in vitro; details: keratinocyte culture
Description: A keratinocyte culture that was placed under conditions that promote the differentiation of cells was selected as a cellular model for the study. The actions of sophorolipids in acid form A, sophorolipids in lactone form B, and lactic acid on the detachment of corneocytes of the selected cellular model were tested in vitro in parallel. In each experiment, the mean difference T60-T0 (corneocytes/ml), as well as the proportion of detached corneocytes, expressed in percentage relative to the negative test (%/TN), were determined.
Cellular viability, measured with the Neutral Red test, is expressed relative to the negative test (%).

Structure (SMILES)	Concentrations IL-1 released by macrophages ([1]; 10^-4M) [pg/mL]	action on IL-1 release relative to that of lipopolysaccharides (fold) ([1]; 10^-4M)	Concentrations IL-1 released by macrophages ([1]; 10^-5M) [pg/mL]	action on IL-1 release compared with lipopolysaccharides ([1]; 10^-5M)	Concentrations IL-1 released by macrophages ([1]; 10^-6M) [pg/mL]	times less toxic than the lactone form ([2]; Tables 3A and 3B) [times]	Cellular Viability Rate ([2]; fibroblasts, 24 hours, 10^-6M, 1 µM)	activity at 100 µM ([3]; 168 h, at day 7) [%]	activity at 10 µM ([3]; 168 h, at day 7) [%]	activity at 1 µM ([3]; 168 h, at day 7) [%]	activity at 100 µM ([3]; 336 h, at day 14) [%]	activity at 10 µM ([3]; 336 h, at day 14) [%]	activity at 1 µM ([3]; 336 h, at day 14) [%]	effect on synthesis of melanine ([3]; unlike linolenic acid)	viability at 1 µM [4] [%]	viability at 10 µM [4] [%]	viability at 100 µM [4] [%]
CC(CCCCCC/C=C\CCCCCCCC(=O)O)O[C@@H]1O[C@H](CO)[C@@H](O)[C@H](O)[C@H]1O[C@@H]1O[C@H](CO)[C@@H](O)[C@H](O)[C@H]1O (some centres unmarked) [Sophorolipid in Acid Form]	795.6	twice	500.8	equivalent to that of lipopolysaccharides	287.2	10	99.65 % relative to TN	56.2	65.8	93.6	56.8	86.4	95.4	reduction in the synthesis of melanine	99.6	99.8	98.7
CC1CCCCCC/C=C\CCCCCCCC(=O)O[C@H]2[C@H](O)[C@@H](O)[C@H](O[C@H]3[C@H](O1)O[C@H](CO)[C@@H](O)[C@@H]3O)O[C@@H]2CO (some centres unmarked) [Sophorolipid in Lactone Form]	255.4	–	385.9	–	345.1	–	–	–	–	–	–	–	–	–	98.8	101	99.1
